Experimental data: patent US10370373B2, “Antitumor derivatives for differentiation therapy” (THE CLEVELAND CLINIC FOUNDATION, priority 2016, dated 2019)

Key:
Type in all cases: cell-based
[1] = cell viability (zolpidem)
THP1 AML cells [2] = test: cell number / growth of THP1 AML cells; conditions: derivatives at 1 mM vs ED2 at 10 μM
Source text: (§1) E) Elevation of differentiation markers CD11b and CD14. […] G) Upregulation of p27 (CDKN1B) (ED3 lysates were unavailable).

THP1 AML cells [3] = test: CD11b / CD14 differentiation marker flow cytometry; conditions: THP-1 cells, 5 days after treatment
Experimental: as §1
(§2) (A) CD11b flow cytometry was performed on THP-1 cells 5 days after the indicated treatments. (B) Annexin-PI flow cytometry of the same cells to determine the percent of cells that were undergoing apoptosis after treatments with the different compounds. Camptothecin is a positive apoptosis inducer.

THP-1 cells = test: Annexin-PI flow cytometry for apoptosis; conditions: 5 days after treatment
Experimental: as §2

## Cc1ccc(-c2nc3ccc(C)cn3c2CC(=O)N(C)C)cc1 [zolpidem]
[1]
  cell viability: does not affect cell viability

## CCCCSc1ccc2nc(-c3ccc(OCCCN)cc3)cn2c1 [NH2, 3-(4-(6-(butylthio)imidazo[1,2-a]pyridin-2-yl)phenoxy)propan-1-amine]
THP1 AML cells [2]
  growth inhibitory activity against THP-1 cells versus ED2: more potent growth inhibitory activity
THP1 AML cells [3]
  differentiation induction via CD11b flow cytometry versus decitabine and ED2: better differentiation inducers than decitabine (DAC) and ED2
THP-1 cells
  activation of apoptosis pathway (Annexin-PI): do not activate the apoptosis pathway

## O=C(O)CCCC[C@@H]1SC[C@@H]2NC(=O)N[C@@H]21 [biotin]
THP1 AML cells [2]
  growth inhibitory activity against THP-1 cells versus ED2: more potent growth inhibitory activity
THP1 AML cells [3]
  differentiation induction via CD11b flow cytometry versus decitabine and ED2: better differentiation inducers than decitabine (DAC) and ED2
THP-1 cells
  activation of apoptosis pathway (Annexin-PI): do not activate the apoptosis pathway
